target: T1, mutant CFTR (Homo sapiens, UniProt P13569, DEL508-508); assay: Fluorescence (HS-YFP) assay for CFTR activity, corrector assay; format: cell-based; details: CFBE41o- and FRT cells with stable expression of mutant CFTR, 24 h compound treatment
T1 construct: expressed in transfected cells
Description: Fluorescence Assay for CFTR Activity
Mutant CFTR activity was determined with the functional assay based on the halide-sensitive yellow fluorescent protein, HS-YFP (Galietta et al., FEBS Lett 499: 220-224, 2001). CFBE41o- and FRT cells with stable expression of mutant CFTR and HS-YFP were plated on clear-bottom 96-well black microplates (Code 3603, Corning Life Sciences) at a density of 50,000 cells/well and kept at 37° C. in 5% CO2 for 24 hours. For the corrector assay, cells were treated for further 24 hours with test compounds, vehicle (DMSO), or the positive control VX-809. After treatment, the culture medium was removed and cells in each well were stimulated for 30 min at 37° C. with 60 μL PBS (containing 137 mM NaCl, 2.7 mM KCl, 8.1 mM Na2HPO4, 1.5 mM KH2PO4, 1 mM CaCl2, and 0.5 mM MgCl2) plus forskolin (20 μM) and genistein (50 μM).
For determination of potentiator activity on G551D-CFTR or G1349D-CFTR, cells were directly stimulated with forskolin plus test compound without previous incubation at low temperature. At the time of assay, microplates carrying CFBE41o- or FRT cells were transferred to microplate readers (BMG Labtech) equipped with high-quality excitation (HQ500/20X: 500±10 nm) and emission (HQ535/30M: 535±15 nm) filters for YFP (Chroma Technology). The assay consisted of a continuous 14 s fluorescence reading with 2 s before and 12 s after injection of an iodide-containing solution (165 μL of a modified PBS containing I^− instead of Cl^−; final I^− concentration in the well: 100 mM). Data were normalized to the initial background-subtracted fluorescence. Enhanced CFTR activity, induced by correctors and/or potentiators, results in accelerated I^− influx that in turn causes faster HS-YFP quenching (Pedemonte et al., Mol Pharmacol 68:1736-1746, 2005; Pedemonte et al., J Clin Invest 115:2564-2571, […]). To determine fluorescence quenching rate associated with I^− influx, the […] 10 s of data for each well were fitted with an exponential function to extrapolate initial slope (dF/dt).
EC50 obtained are illustrated in table 1 wherein +: EC50>2 μM; ++: 1.0 μM<EC50<2 μM; +++: EC50<1 μM.

T1 sequence (P13569 with tags, fused parts or gaps DEL508-508): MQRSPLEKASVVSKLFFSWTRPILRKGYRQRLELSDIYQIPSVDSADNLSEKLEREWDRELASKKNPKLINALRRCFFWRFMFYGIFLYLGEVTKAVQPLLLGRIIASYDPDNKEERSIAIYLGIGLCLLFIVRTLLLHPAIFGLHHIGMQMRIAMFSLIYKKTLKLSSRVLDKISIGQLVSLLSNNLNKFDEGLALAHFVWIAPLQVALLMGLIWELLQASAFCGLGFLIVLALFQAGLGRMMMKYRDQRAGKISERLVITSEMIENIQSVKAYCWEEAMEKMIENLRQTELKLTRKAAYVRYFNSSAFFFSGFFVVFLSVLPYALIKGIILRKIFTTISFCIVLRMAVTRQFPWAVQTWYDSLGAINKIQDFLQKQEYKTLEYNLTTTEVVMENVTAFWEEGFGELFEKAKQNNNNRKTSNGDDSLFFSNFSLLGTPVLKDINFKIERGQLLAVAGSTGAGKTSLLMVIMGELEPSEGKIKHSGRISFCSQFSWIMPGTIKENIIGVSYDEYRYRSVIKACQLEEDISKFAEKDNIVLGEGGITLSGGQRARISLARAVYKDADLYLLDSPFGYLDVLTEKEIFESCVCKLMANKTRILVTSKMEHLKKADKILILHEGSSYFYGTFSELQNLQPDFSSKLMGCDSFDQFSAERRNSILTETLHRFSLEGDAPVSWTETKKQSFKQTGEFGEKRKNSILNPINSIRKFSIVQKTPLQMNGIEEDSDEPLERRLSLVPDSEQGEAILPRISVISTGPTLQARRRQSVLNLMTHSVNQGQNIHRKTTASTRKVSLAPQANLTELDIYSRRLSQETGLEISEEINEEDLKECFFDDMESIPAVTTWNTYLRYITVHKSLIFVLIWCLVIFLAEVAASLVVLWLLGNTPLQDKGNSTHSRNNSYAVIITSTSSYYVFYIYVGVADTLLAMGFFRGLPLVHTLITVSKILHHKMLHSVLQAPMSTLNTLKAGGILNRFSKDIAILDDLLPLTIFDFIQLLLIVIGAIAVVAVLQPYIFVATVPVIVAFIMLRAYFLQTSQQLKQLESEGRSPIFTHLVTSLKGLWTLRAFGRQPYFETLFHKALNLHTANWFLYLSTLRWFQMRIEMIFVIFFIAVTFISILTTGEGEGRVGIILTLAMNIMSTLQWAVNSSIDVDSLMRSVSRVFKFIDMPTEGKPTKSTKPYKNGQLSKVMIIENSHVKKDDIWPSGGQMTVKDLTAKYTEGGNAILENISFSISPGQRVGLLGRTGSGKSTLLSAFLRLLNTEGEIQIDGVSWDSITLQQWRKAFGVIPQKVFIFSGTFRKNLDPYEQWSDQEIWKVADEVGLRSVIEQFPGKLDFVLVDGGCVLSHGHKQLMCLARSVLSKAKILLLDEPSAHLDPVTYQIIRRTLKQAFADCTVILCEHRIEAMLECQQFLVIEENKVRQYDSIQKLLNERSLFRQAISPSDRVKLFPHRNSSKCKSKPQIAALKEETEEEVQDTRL

| Structure (SMILES) | EC50 |
| --- | --- |
| Cc1nn(-c2cccc(C(=O)N(C)c3ccc4c(c3)OCO4)c2)c(C)c1C(N)=O [compound 056, 1-[3-[1,3-Benzodioxol-5-yl(methyl)carbamoyl]phenyl]-3,5-dimethyl-pyrazole-4-carboxamide] | > 2 µM |
| Cc1nn(-c2cccc(C(=O)N(C)c3ccc4c(c3)COC4)c2)c(C)c1Cl [compound 057] | 1 to 2 µM |
| Cc1nn(-c2cccc(C(=O)N(C)c3ccc4c(c3)CCO4)c2)c(C)c1Cl [compound 058] | < 1 µM |
| Cc1nn(-c2cccc(C(=O)N(C)c3ccc4c(c3)OCO4)c2)c(C)c1C(=O)NCCO [compound 059, 1-[3-[1,3-Benzodioxol-5-yl(methyl)carbamoyl]phenyl]-N-(2-hydroxyethyl)-3,5-dimethyl-pyrazole-4-carboxamide] | > 2 µM |
| Cc1nn(-c2cccc(C(=O)N(C)c3ccc4oc(C(C)C)nc4c3)c2)c(C)c1Cl [compound 062, 3-(4-Chloro-3,5-dimethyl-pyrazol-1-yl)-N-(2-isopropyl-1,3-benzoxazol-5-yl)-N-methyl-benzamide] | > 2 µM |
| COc1nc2cc(N(C)C(=O)c3cccc(-n4nc(C)c(Cl)c4C)c3)ccc2o1 [compound 064, 3-(4-Chloro-3,5-dimethyl-pyrazol-1-yl)-N-(2-methoxy-1,3-benzoxazol-5-yl)-N-methyl-benzamide] | > 2 µM |
| Cc1cc(C(=O)O)n(-c2cccc(C(=O)N(C)c3ccc4c(c3)OCO4)c2)n1 [compound 065, 2-[3-[1,3-benzodioxol-5-yl(methyl)carbamoyl]phenyl]-5-methyl-pyrazole-3-carboxylic acid] | > 2 µM |
| Cc1cc(C(=O)O)nn1-c1cccc(C(=O)N(C)c2ccc3c(c2)OCO3)c1 [compound 066, 1-[3-[1,3-Benzodioxol-5-yl(methyl)carbamoyl]phenyl]-5-methyl-pyrazole-3-carboxylic acid] | > 2 µM |
| CCOC(=O)c1nn(-c2cccc(C(=O)N(C)c3ccc4c(c3)OCO4)c2)c(C)c1Cl [compound 067, Ethyl 1-[3-[1,3-benzodioxol-5-yl(methyl)carbamoyl]phenyl]-4-chloro-5-methyl-pyrazole-3-carboxylate] | > 2 µM |
| COc1cccc(N(C)C(=O)c2cccc(-n3nc(C)c(Cl)c3C)c2)c1 [compound 068, 3-(4-Chloro-3,5-dimethyl-pyrazol-1-yl)-N-(3-methoxyphenyl)-N-methyl-benzamide] | < 1 µM |
| Cc1c(Cl)c(C(=O)O)nn1-c1cccc(C(=O)N(C)c2ccc3c(c2)OCO3)c1 [compound 069, 1-[3-[1,3-Benzodioxol-5-yl(methyl)carbamoyl]phenyl]-4-chloro-5-methyl-pyrazole-3-carboxylic acid] | > 2 µM |
| Cc1cc(CO)n(-c2cccc(C(=O)N(C)c3ccc4c(c3)OCO4)c2)n1 [compound 070, N-(1,3-Benzodioxol-5-yl)-3-[5-(hydroxymethyl)-3-methyl-pyrazol-1-yl]-N-methyl-benzamide] | > 2 µM |
| Cc1nn(-c2cc(C(=O)N(C)c3ccc4c(c3)OCO4)ccc2C(F)(F)F)c(C)c1Cl [compound 071, N-(1,3-Benzodioxol-5-yl)-3-(4-chloro-3,5-dimethyl-pyrazol-1-yl)-N-methyl-4-(trifluoromethyl)benzamide] | > 2 µM |
| Cc1nn(-c2nccc(C(=O)N(C)c3ccc4c(c3)OCO4)n2)c(C)c1Cl [compound 072, N-(1,3-Benzodioxol-5-yl)-2-(4-chloro-3,5-dimethyl-pyrazol-1-yl)-N-methyl-pyrimidine-4-carboxamide] | > 2 µM |
| Cc1c(Cl)c(CO)nn1-c1cccc(C(=O)N(C)c2ccc3c(c2)OCO3)c1 [compound 073, N-(1,3-Benzodioxol-5-yl)-3-[4-chloro-3-(hydroxylmethyl)-5-methyl-pyrazol-1-yl]-N-methyl-benzamide] | > 2 µM |
| Cc1c(Cl)c(C(N)=O)nn1-c1cccc(C(=O)N(C)c2ccc3c(c2)OCO3)c1 [compound 074, 1-[3-[1,3-Benzodioxol-5-yl(methyl)carbamoyl]phenyl]-4-chloro-5-methyl-pyrazole-3-carboxamide] | > 2 µM |

| Structure (SMILES) | EC50 |
| --- | --- |
| CCc1nc2ccc(N(C)C(=O)c3cccc(-n4nc(C)c(Cl)c4C)c3)cc2o1 [compound 076, 3-(4-Chloro-3,5-dimethyl-pyrazol-1-yl)-N-(2-ethyl-1,3-benzoxazol-6-yl)-N-methyl-benzamide] | < 1 µM |
| Cc1cn2cc(N(C)C(=O)c3cccc(-n4nc(C)c(Cl)c4C)c3)ccc2n1 [compound 077, 3-(4-Chloro-3,5-dimethyl-pyrazol-1-yl)-N-methyl-N-(2-methylimidazo[1,2-a]pyridin-6-yl)benzamide] | < 1 µM |
| Cc1nn(-c2cccc(C(=O)N(C)c3ccc4oc(C(F)(F)F)nc4c3)c2)c(C)c1Cl [compound 078, 3-(4-Chloro-3,5-dimethyl-pyrazol-1-yl)-N-methyl-N-[2-(trifluoromethyl)-1,3-benzoxazol-5-yl]benzamide] | > 2 µM |
| Cc1nc2ccc(N(C)C(=O)c3cccc(-n4nc(C)c(Cl)c4C)c3)cn2n1 [compound 079, 3-(4-Chloro-3,5-dimethyl-pyrazol-1-yl)-N-methyl-N-(2-methyl-[1,2,4]triazolo[1,5-a]pyridin-6-yl)benzamide] | > 2 µM |
| Cc1nn(-c2cccc(C(=O)N(C)c3ccc4c(c3)OCO4)c2)c(C)c1C#N [compound 081, N-(1,3-Benzodioxol-5-yl)-3-(4-cyano-3,5-dimethyl-pyrazol-1-yl)-N-methyl-benzamide] | > 2 µM |
| Cc1ccc(C(=O)N(C)c2ccc3c(c2)OCO3)cc1-n1nc(C)c(Cl)c1C [compound 082, N-(1,3-Benzodioxol-5-yl)-3-(4-chloro-3,5-dimethyl-pyrazol-1-yl)-N,4-dimethyl-benzamide] | 1 to 2 µM |
| Cc1nn(-c2cccc(C(=O)N(C)c3ccc4c(c3)OCO4)c2)c(C(=O)O)c1Cl [compound 083, 2-[3-[1,3-Benzodioxol-5-yl(methyl)carbamoyl]phenyl]-4-chloro-5-methyl-pyrazole-3-carboxylic acid] | > 2 µM |
| Cc1nn(-c2cccc(C(=O)N(C)c3ccc4c(c3)OCO4)c2)c(C(N)=O)c1Cl [compound 084, 2-[3-[1,3-benzodioxol-5-yl(methyl)carbamoyl]phenyl]-4-chloro-5-methyl-pyrazole-3-carboxamide] | > 2 µM |
| CNC(=O)c1c(Cl)c(C)nn1-c1cccc(C(=O)N(C)c2ccc3c(c2)OCO3)c1 [compound 085, 2-[3-[1,3-benzodioxol-5-yl(methyl)carbamoyl]phenyl]-4-chloro-N,5-dimethyl-pyrazole-3-carboxamide] | > 2 µM |
| CCOC(=O)c1nn(-c2cccc(C(=O)N(C)c3ccc4c(c3)OCO4)c2)c(C(C)C)c1Cl [compound 086, Ethyl 1-[3-[1,3-benzodioxol-5-yl(methyl)carbamoyl]phenyl]-4-chloro-5-isopropyl-pyrazole-3-carboxylate] | > 2 µM |
| CCOC(=O)c1c(Cl)c(C(C)C)nn1-c1cccc(C(=O)N(C)c2ccc3c(c2)OCO3)c1 [compound 087, Ethyl 2-[3-[1,3-benzodioxol-5-yl(methyl)carbamoyl]phenyl]-4-chloro-5-isopropyl-pyrazole-3-carboxylate] | < 1 µM |
| Cc1nn(-c2cccc(C(=O)N(C)c3ccc4c(c3)OCO4)c2)c(C(=O)N(C)C)c1Cl [compound 088, 2-[3-[1,3-benzodioxol-5-yl(methyl)carbamoyl]phenyl]-4-chloro-N,N,5-trimethyl-pyrazole-3-carboxamide] | > 2 µM |
| Cc1cc(C(F)(F)F)nn1-c1cccc(C(=O)N(C)c2ccc3c(c2)OCO3)c1 [compound 091, N-(1,3-Benzodioxol-5-yl)-N-methyl-3-[5-methyl-3-(trifluoromethyl)pyrazol-1-yl]benzamide] | 1 to 2 µM |
| CCc1nn(-c2cccc(C(=O)N(C)c3ccc4c(c3)OCO4)c2)c(CC)c1Cl [compound 092, N-(1,3-Benzodioxol-5-yl)-3-(4-chloro-3,5-diethyl-pyrazol-1-yl)-N-methyl-benzamide] | < 1 µM |
| CCc1cc(CC)n(-c2cccc(C(=O)N(C)c3ccc4c(c3)OCO4)c2)n1 [compound 093, N-(1,3-Benzodioxol-5-yl)-3-(3,5-diethylpyrazol-1-yl)-N-methyl-benzamide] | 1 to 2 µM |
| Cc1nn(-c2cccc(C(=O)N(C)c3ccc4c(c3)OCO4)c2)c(C2CC2)c1Cl [compound 094, N-(1,3-Benzodioxol-5-yl)-3-(4-chloro-5-cyclopropyl-3-methyl-pyrazol-1-yl)-N-methyl-benzamide] | < 1 µM |

— US12492193B2, “Pyrazole derivatives for the treatment of cystic fibrosis” (Fondazione Istituto Italiano Di Tecnologia, priority 2017, dated 2025)
